Results on 32 molecules are retold here after ChEMBL document CHEMBL1157454, “Citral derived amides as potent bacterial NorA efflux pump inhibitors” (2008).

The subject of assay [1] is Staphylococcus aureus. Description: Antimicrobial activity against NorA overexpressing Staphylococcus aureus 1199B at 100 ug/ml after 18 hrs by twofold serial dilution method. It is filed as functional, organism-based.
Assay [2] deals with Staphylococcus aureus. Kind of assay: Antimicrobial activity against Staphylococcus aureus 1199 at 100 ug/ml after 18 hrs by twofold serial dilution method. It is filed as functional, organism-based.
Assay [3] deals with T1, Quinolone resistance protein NorA (Staphylococcus aureus) (UniProt P0A0J7).
T1 sequence (whole entry): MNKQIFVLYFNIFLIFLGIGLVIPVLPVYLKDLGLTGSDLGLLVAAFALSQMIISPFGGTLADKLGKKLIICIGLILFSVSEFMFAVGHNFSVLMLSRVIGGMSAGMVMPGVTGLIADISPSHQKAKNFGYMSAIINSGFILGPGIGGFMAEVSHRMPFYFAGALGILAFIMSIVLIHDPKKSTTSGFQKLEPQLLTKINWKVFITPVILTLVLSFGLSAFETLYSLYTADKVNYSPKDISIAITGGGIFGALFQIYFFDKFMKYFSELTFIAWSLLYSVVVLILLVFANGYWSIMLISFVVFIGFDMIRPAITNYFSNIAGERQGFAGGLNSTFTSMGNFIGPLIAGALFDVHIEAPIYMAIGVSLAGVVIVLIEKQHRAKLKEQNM
Description: Inhibition of NorA efflux pump in Staphylococcus aureus 1199B assessed as fold reduction of ciprofloxacin MIC at 25 ug/ml.

Assay [4] has as its target T1, Quinolone resistance protein NorA (Staphylococcus aureus). Kind of assay: Inhibition of NorA efflux pump in Staphylococcus aureus 1199B assessed as fold reduction of ciprofloxacin MIC at 12.5 ug/ml.
Assay [5] has the same target. Description: Inhibition of NorA efflux pump in Staphylococcus aureus 1199 assessed as fold reduction of ciprofloxacin MIC at 12.5 ug/ml.
Assay [6] shares this target. Kind of assay: Inhibition of NorA efflux pump in Staphylococcus aureus 1199 assessed as fold reduction of ciprofloxacin MIC at 25 ug/ml.
For assay [7] the target is unchanged. The following applies: 1199B.
For assay [8] the target is unchanged.
Assay [9] shares this target. Kind of assay: Inhibition of NorA efflux pump in Staphylococcus aureus 1199B assessed as fold reduction of ciprofloxacin MIC at 6.25 ug/ml.
Assay [10] has the same target. Kind of assay: Inhibition of NorA efflux pump in Staphylococcus aureus 1199 assessed as fold reduction of ciprofloxacin MIC at 6.25 ug/ml.

≈ marks a conversion by molar mass, not a printed value. Calls of active or inactive are those of the source. The rule behind the calls is not given here.

For the molecule `CC(C)=CCC/C(C)=C/C=C/C(=O)N1CCCC1`, the outcome in the assay on Staphylococcus aureus [1] and with Staphylococcus aureus [2] was inactive.
For `CCCCCCCCNC(=O)/C=C/C=C(\C)CC/C=C(\C)C=O`, the fold reduction in assay [3] stood at 4; in assay [4], 2; in assay [5], 2; in [6] it was 2. Also, the outcome in the assay with Staphylococcus aureus [1] and in the assay on Staphylococcus aureus [2] was inactive.
On to `CC(C)=CCC/C(C)=C/C=C/C(=O)Nc1ccccc1`, for which the outcome with Staphylococcus aureus [1] and with Staphylococcus aureus [2] was inactive.
`CC(C)c1cc2c(c(O)c1O)[C@@]1(C(=O)O)CCCC(C)(C)[C@@H]1CC2`: the fold reduction in assay [3] and in assay [6] was 2 each time.
Take `CCCCCCCCNC(=O)/C=C/C=C(\C)CCC=C(C)C`: the fold reduction in assay [3] amounted to 4; in assay [4], 2; in assay [5], 2; in [6], 4. In addition, the result in the assay on Staphylococcus aureus [1] and in the assay with Staphylococcus aureus [2] was inactive.
In the case of `CCCCCCCCNC(=O)/C=C/CC(C)CCC=C(C)C` (stereo not given), the outcome with Staphylococcus aureus [1] and with Staphylococcus aureus [2] was inactive.
Take `CC(C)=CCC/C(C)=C/C=C/C(=O)O`: the outcome in the assay on Staphylococcus aureus [1] and with Staphylococcus aureus [2] was inactive.
As for `CC(C)=CCC/C(C)=C/C=C/C(=O)NCc1ccccc1`, the fold reduction in [3] stood at 4; in assay [4] it was 2; in assay [6] it was 2. Besides, the result in the assay with Staphylococcus aureus [1] and with Staphylococcus aureus [2] was inactive.
Consider `CC(C)=CCC/C(C)=C/C=C/C(=O)N(C(C)C)C(C)C`, for which the fold reduction in assay [3] is 4; in assay [6] it was 2. Moreover, the outcome with Staphylococcus aureus [1] and in the assay on Staphylococcus aureus [2] was inactive.
In the case of `C/C(C=O)=C\CC/C(C)=C/C=C/C(=O)NCc1ccccc1`, the fold reduction in [3] was 4; in assay [4], 2; in [6] it was 2. The result with Staphylococcus aureus [1] and with Staphylococcus aureus [2] was inactive.
Consider `CC(C)=CCC/C(C)=C/C=C/C(=O)N1CCOCC1`, for which the outcome in the assay with Staphylococcus aureus [1] and in the assay on Staphylococcus aureus [2] was inactive.
Consider `COc1ccccc1NC(=O)/C=C/C=C(\C)CCC=C(C)C`, for which the fold reduction in [3] was found to be 4; in assay [6], 2. The outcome with Staphylococcus aureus [1] and with Staphylococcus aureus [2] was inactive.
Turning to `COc1ccc(NC(=O)/C=C/C=C(\C)CCC=C(C)C)cc1`, the result with Staphylococcus aureus [1] and in the assay with Staphylococcus aureus [2] was inactive.
`CC(C)=CCC/C(C)=C/C=C/C(=O)NC(C)C`: the result in the assay with Staphylococcus aureus [1] and in the assay on Staphylococcus aureus [2] was inactive.
For the molecule `CC(C)=CCCC(C)C/C=C/C(=O)NCc1ccccc1` (stereo not given), the outcome in the assay on Staphylococcus aureus [1] and in the assay with Staphylococcus aureus [2] was inactive. Besides, the MIC in [7] and in [8] was 4 µg/mL (≈ 14 µM) in each case.
With `CC(C)=CCC/C(C)=C/C=C/C(=O)Nc1ccccc1C`, the outcome with Staphylococcus aureus [1] and in the assay with Staphylococcus aureus [2] was inactive.
For `CC(C)=CCC/C(C)=C/C=C/C(=O)N1CCCCC1`, the fold reduction in assay [4] and in assay [5] was 2 each time. For the same molecule, the result in the assay on Staphylococcus aureus [1] and in the assay with Staphylococcus aureus [2] was inactive.
In the case of `O=C(/C=C/C=C/c1ccc2c(c1)OCO2)N1CCCCC1`, the MIC in assay [7] and in assay [8] was 2 µg/mL (≈ 7.01 µM) each time.
In the case of `COc1ccccc1NC(=O)/C=C/CC(C)CC/C=C(\C)C=O` (stereo not given), in assay [3], the fold reduction was 4. Besides, the outcome in the assay on Staphylococcus aureus [1] and in the assay on Staphylococcus aureus [2] was inactive.
As to `COC(=O)[C@H]1[C@H]2C[C@@H]3c4[nH]c5cc(OC)ccc5c4CCN3C[C@H]2C[C@@H](OC(=O)c2cc(OC)c(OC)c(OC)c2)[C@@H]1OC`, the fold reduction came out at 4 in [3] and 2 in assay [6].
Consider `COc1ccccc1NC(=O)/C=C/CC(C)CCC=C(C)C` (stereo not given), for which, in assay [4], the fold reduction was found to be 2. Moreover, the result with Staphylococcus aureus [1] and in the assay with Staphylococcus aureus [2] was inactive.
As to `C/C(C=O)=C\CC/C(C)=C/C=C/C(=O)N1CCOCC1`, the result in the assay with Staphylococcus aureus [1] and in the assay with Staphylococcus aureus [2] was inactive.
Consider `COc1ccccc1NC(=O)CCCC(C)CCC=C(C)C` (stereo not given), for which the outcome in the assay on Staphylococcus aureus [1] and with Staphylococcus aureus [2] was inactive.
For the molecule `CCCCCCCCNC(=O)/C=C/CC(C)CC/C=C(\C)C=O` (stereo not given), the fold reduction in assay [3] came to 4. Besides, the outcome in the assay with Staphylococcus aureus [1] and in the assay with Staphylococcus aureus [2] was inactive.
Regarding `C/C(C=O)=C\CC/C(C)=C/C=C/C(=O)N1CCCC1`, the result in the assay with Staphylococcus aureus [1] and in the assay with Staphylococcus aureus [2] was inactive.
As to `CC(C)=CCCC(C)C/C=C/C(=O)N1CCCCC1` (stereo not given), the fold reduction in [4] was 2. Also, the result with Staphylococcus aureus [1] and in the assay on Staphylococcus aureus [2] was inactive.
In the case of `C/C(C=O)=C\CCC(C)CCCC(=O)N1CCCCC1` (stereo not given), the result in the assay on Staphylococcus aureus [1] and in the assay on Staphylococcus aureus [2] was inactive.
On to `C/C(C=O)=C\CCC(C)CCCC(=O)NCc1ccccc1` (stereo not given), for which the outcome in the assay with Staphylococcus aureus [1] and with Staphylococcus aureus [2] was inactive.
Turning to `C/C(C=O)=C\CC/C(C)=C/C=C/C(=O)N(C(C)C)C(C)C`, the results for the fold reduction in assay [3] and in [4] were 4 and 2, respectively. Besides, the outcome in the assay with Staphylococcus aureus [1] and in the assay with Staphylococcus aureus [2] was inactive.
Turning to `CC(C)=CCC/C(C)=C/C=C/C(=O)NCC(C)C`, the result in the assay with Staphylococcus aureus [1] and with Staphylococcus aureus [2] was inactive.
With `C/C(C=O)=C\CC/C(C)=C/C=C/C(=O)N1CCCCC1`, the figures for the fold reduction in assay [9], in assay [3] and in assay [10] were 2, 4 and 2, respectively. Moreover, the result with Staphylococcus aureus [1] and in the assay with Staphylococcus aureus [2] was inactive.
`CCCCCCCCNC(=O)CCCC(C)CCC=C(C)C` (stereo not given): the outcome in the assay with Staphylococcus aureus [1] and with Staphylococcus aureus [2] was inactive.
